This test concerns monocistronic NK5.1 HCV replicon in Huh7 cells. Nature of the test: HCV replicon assay, monocistronic replicon cell line. The test is classed as cell-based, hepatitis C virus. To be noted: Hepatitis C virus, Huh-7, 72 h; table T3 (compounds 471-640); monocistronic replicon in Huh7 cells, 3 days incubation, HCV RNA/GAPDH RNA by TaqMan RT-PCR; read-out: Mono EC50 Median. The method in brief:
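EC50 derives from the HCV RNA/GAPDH RNA ratio by one-step TaqMan RT-PCR, relative to DMSO-only wells. Compounds (six half-log concentrations, 0.6% DMSO) were incubated 3 days at 37 °C with NK5.1 monocistronic replicon Huh7 cells plated a day earlier.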
In general terms: A replicon is a self-replicating genome or part of one, used to study replication in cells.

Regarding `CCN(CC)c1ccc(-c2nc(-c3cnccn3)n[nH]2)c(O)c1` [Compound 587, 5-Diethylamino-2-(5-pyrazin-2-yl-2H-[1,2,4]triazol-3-yl)-phenol], the EC50 (usually the concentration at which the effect is half-maximal) worked out at 23 µM.
For `Oc1ccc(O)c(-c2nc(-c3cnccn3)n[nH]2)c1` [Compound 588, 4-Hydroxy-2-(5-pyrazin-2-yl-2H-[1,2,4]triazol-3-yl)-phenol] the value was greater than 32 µM.
`Oc1ccc2ccccc2c1-c1nc(-c2cnccn2)n[nH]1` [Compound 589, 1-(5-pyrazin-2-yl-2H-[1,2,4]triazol-3-yl)-naphthalen-2-ol]: the EC50 was 7 µM.
The value for `Oc1c(Br)cc(Br)cc1-c1nc(-c2cnccn2)n[nH]1` [Compound 590, 2,4-Dibromo-6-(5-pyrazin-2-yl-2H-[1,2,4]triazol-3-yl)-phenol] was 14 µM; that for `Oc1c(-c2nc(-c3cnccn3)n[nH]2)ccc2ccccc12` [Compound 591, 2-(5-pyrazin-2-yl-2H-[1,2,4]triazol-3-yl)-naphthalen-1-ol] was 16 µM.
For `Nc1ccc(-c2n[nH]c(-c3cc(Br)ccc3O)n2)nc1` [Compound 592, 2-[5-(5-Amino-pyridin-2-yl)-2H-[1,2,4]triazol-3-yl]-4-bromo-phenol], the EC50 was greater than 32 µM.
The value for `CC(=O)Nc1ccc(-c2n[nH]c(-c3cc(Br)ccc3O)n2)nc1` [Compound 593, N-{6-[5-(5-Bromo-2-hydroxy-phenyl)-1H-[1,2,4]triazol-3-yl]-pyridin-3-yl}-acetamide] was 48.7 µM.
Regarding `COc1ccc(O)c(-c2nc(-c3ccc(N)cn3)n[nH]2)c1` [Compound 594, 2-[5-(5-Amino-pyridin-2-yl)-2H-[1,2,4]triazol-3-yl]-4-methoxy-phenol], the EC50 was greater than 19 µM.
Regarding `COc1ccc(O)c(-c2nc(-c3ccc(NC(C)=O)cn3)n[nH]2)c1` [Compound 595, N-{6-[5-(5-methoxy-2-hydroxy-phenyl)-1H-[1,2,4]triazol-3-yl]-pyridin-3-yl}-acetamide], the EC50 was 41.8 µM.
For `Cn1nc(-c2ccccn2)nc1-c1cc(Br)ccc1O` [Compound 596, 4-Bromo-2-(2-methyl-5-pyridin-2-yl-2H-[1,2,4]triazol-3-yl)-phenol] the value was 15 µM.
Turning to `Cn1nc(-c2ccccn2)nc1-c1cc([N+](=O)[O-])ccc1O` [Compound 597, 4-Nitro-2-(2-methyl-5-pyridin-2-yl-2H-[1,2,4]triazol-3-yl)-phenol], the EC50 came out at 11 µM.
For `COc1ccc(O)c(-c2nc(-c3ccccn3)nn2C)c1` [Compound 598, 4-Methoxy-2-(2-methyl-5-pyridin-2-yl-2H-[1,2,4]triazol-3-yl)-phenol] the value was greater than 32 µM; for `Cn1nc(-c2ccccn2)nc1-c1cc(Cl)ccc1O` [Compound 599, 4-Chloro-2-(2-methyl-5-pyridin-2-yl-2H-[1,2,4]triazol-3-yl)-phenol], 12 µM; for `Cn1nc(-c2ccccn2)nc1-c1ccc(OCc2ccccc2)cc1O` [Compound 600, 5-Benzyloxy-2-(2-methyl-5-pyridin-2-yl-2H-[1,2,4]triazol-3-yl)-phenol], 5 µM.
On to `COc1ccc(-c2nc(-c3ccccn3)nn2C)c(O)c1` [Compound 601, 5-Methoxy-2-(2-methyl-5-pyridin-2-yl-2H-[1,2,4]triazol-3-yl)-phenol], for which the EC50 is greater than 32 µM.
The value for `Cn1nc(-c2ccccn2)nc1-c1ccccc1O` [Compound 602, 2-(2-methyl-5-pyridin-2-yl-2H-[1,2,4]triazol-3-yl)-phenol] was greater than 32 µM; that for `COc1cccc(-c2nc(-c3ccccn3)nn2C)c1O` [Compound 603, 6-Methoxy-2-(2-methyl-5-pyridin-2-yl-2H-[1,2,4]triazol-3-yl)-phenol] was greater than 32 µM.
For `Cn1nc(-c2ccccn2)nc1-c1cc(O)ccc1O` [Compound 604, 4-Hydroxy-2-(2-methyl-5-pyridin-2-yl-2H-[1,2,4]triazol-3-yl)-phenol] the value was 37.6 µM; for `Cn1nc(-c2ccccn2)nc1-c1c(O)ccc2ccccc12` [Compound 605, 1-(2-methyl-5-Pyridin-2-yl-2H-[1,2,4]triazol-3-yl)-naphthalen-2-ol], 9 µM.
The value for `Cn1nc(-c2ccccn2)nc1-c1ccc2ccccc2c1O` [Compound 606, 2-(2-Methyl-5-pyridin-2-yl-2H-[1,2,4]triazol-3-yl)-naphthalen-1-ol] was 2.4 µM; that for `Cc1cccnc1-c1nc(-c2cc([N+](=O)[O-])ccc2O)n(C)n1` [Compound 607, 4-Nitro-2-[2-methyl-5-(3-methyl-pyridin-2-yl)-2H-[1,2,4]triazol-3-yl]-phenol] was 2.8 µM; that for `Cc1cccnc1-c1nc(-c2cc(F)ccc2O)n(C)n1` [Compound 608, 4-Fluoro-2-[2-methyl-5-(3-methyl-pyridin-2-yl)-2H-[1,2,4]triazol-3-yl]-phenol] was 8.1 µM.
For the compound `COc1ccc(O)c(-c2nc(-c3ncccc3C)nn2C)c1` [Compound 609, 4-Methoxy-2-[2-methyl-5-(3-methyl-pyridin-2-yl)-2H-[1,2,4]triazol-3-yl]-phenol], the EC50 amounted to 17 µM.
The value for `Cc1cccnc1-c1nc(-c2cc(Cl)ccc2O)n(C)n1` [Compound 610, 4-Chloro-2-[2-methyl-5-(3-methyl-pyridin-2-yl)-2H-[1,2,4]triazol-3-yl]-phenol] was 2.5 µM; that for `Cc1cccnc1-c1nc(-c2ccc(OCc3ccccc3)cc2O)n(C)n1` [Compound 611, 5-Benzyloxy-2-[2-methyl-5-(3-methyl-pyridin-2-yl)-2H-[1,2,4]triazol-3-yl]-phenol] was greater than 3.2 µM; that for `Cc1cccnc1-c1nc(-c2cc(Br)ccc2O)n(C)n1` [Compound 612, 4-Bromo-2-[2-methyl-5-(3-methyl-pyridin-2-yl)-2H-[1,2,4]triazol-3-yl]-phenol] was 2.4 µM.
Consider `COc1ccc(-c2nc(-c3ncccc3C)nn2C)c(O)c1` [Compound 613, 5-Methoxy-2-[2-methyl-5-(3-methyl-pyridin-2-yl)-2H-[1,2,4]triazol-3-yl]-phenol], for which the EC50 stood at 6.4 µM.
The value for `Cc1cccnc1-c1nc(-c2ccccc2O)n(C)n1` [Compound 614, 2-[2-methyl-5-(3-methyl-pyridin-2-yl)-2H-[1,2,4]triazol-3-yl]-phenol] was 6.9 µM; that for `COc1cccc(-c2nc(-c3ncccc3C)nn2C)c1O` [Compound 615, 6-Methoxy-2-[2-methyl-5-(3-methyl-pyridin-2-yl)-2H-[1,2,4]triazol-3-yl]-phenol] was 18 µM.
The value for `Cc1cccnc1-c1nc(-c2cc(O)ccc2O)n(C)n1` [Compound 616, 4-Hydroxy-2-[2-methyl-5-(3-methyl-pyridin-2-yl)-2H-[1,2,4]triazol-3-yl]-phenol] was 35.8 µM; that for `Cc1cccnc1-c1nc(-c2c(O)ccc3ccccc23)n(C)n1` [Compound 617, 1-[2-methyl-5-(3-methyl-pyridin-2-yl)-2H-[1,2,4]triazol-3-yl]-naphthalen-2-ol] was greater than 19 µM.
For `Cc1cccnc1-c1nc(-c2ccc3ccccc3c2O)n(C)n1` [Compound 618, 2-[2-methyl-5-(3-methyl-pyridin-2-yl)-2H-[1,2,4]triazol-3-yl]-naphthalen-1-ol] the value was 1.5 µM; for `Oc1c(Cl)cc(Cl)cc1-c1nc(-c2ccccn2)n[nH]1` [Compound 619, 4,6-Dichloro-2-(5-pyridin-2-yl-2H-[1,2,4]triazol-3-yl)-phenol], 0.3 µM; for `Oc1c(Br)cc(Br)cc1-c1nc(-c2ccccn2)n[nH]1` [Compound 620, 4,6-Dibromo-2-(5-pyridin-2-yl-2H-[1,2,4]triazol-3-yl)-phenol], 0.6 µM.
`Oc1c(Br)cc(Cl)cc1-c1nc(-c2ccccn2)n[nH]1` [Compound 621, 4-Chloro-6-bromo-2-(5-pyridin-2-yl-2H-[1,2,4]triazol-3-yl)-phenol]: the EC50 came to 0.5 µM.
On to `Cc1cccnc1-c1n[nH]c(-c2cc(Cl)cc(Cl)c2O)n1` [Compound 622, 4,6-Dichloro-2-[5-(3-methyl-pyridin-2-yl)-2H-[1,2,4]triazol-3-yl]-phenol], for which the concentration for a half-maximal effect (EC50) was 1.4 µM.
For `Cc1cccnc1-c1n[nH]c(-c2cc(Br)cc(Br)c2O)n1` [Compound 623, 4,6-Dibromo-2-[5-(3-methyl-pyridin-2-yl)-2H-[1,2,4]triazol-3-yl]-phenol] the value was 1.5 µM.
As to `Cc1cccnc1-c1n[nH]c(-c2cc(Cl)cc(Br)c2O)n1` [Compound 624, 4-Chloro-6-bromo-2-[5-(3-methyl-pyridin-2-yl)-2H-[1,2,4]triazol-3-yl]-phenol], the EC50 is 2.2 µM.
Turning to `Cn1nc(-c2ccccn2)nc1-c1cc(Cl)cc(Cl)c1O` [Compound 625, 4,6-Dichloro-2-(2-methyl-5-pyridin-2-yl-2H-[1,2,4]triazol-3-yl)-phenol], the EC50 stood at 3.2 µM.
The value for `Cn1nc(-c2ccccn2)nc1-c1cc(Br)cc(Br)c1O` [Compound 626, 4,6-Dibromo-2-(2-methyl-5-pyridin-2-yl-2H-[1,2,4]triazol-3-yl)-phenol] was 4.8 µM; that for `Cn1nc(-c2ccccn2)nc1-c1cc(Cl)cc(Br)c1O` [Compound 627, 6-Bromo-4-Chloro-2-(2-methyl-5-pyridin-2-yl-2H-[1,2,4]triazol-3-yl)-phenol] was 2.5 µM.
Consider `c1ccc(-c2ncn(-c3ccccn3)n2)cc1` [Compound 628, 2-(3-Phenyl-[1,2,4]triazol-1-yl)-pyridine], for which the half-maximal effective concentration (EC50) was greater than 32 µM.
Consider `Oc1ccccc1-c1ncn(-c2ccccn2)n1` [Compound 629, 2-(1-Pyridin-2-yl-1H-[1,2,4]triazol-3-yl)-phenol], for which the EC50 was determined as 16 µM.
For `Oc1ccc(Cl)cc1-c1ncn(-c2ccccn2)n1` [Compound 630, 4-Chloro-2-(1-pyridin-2-yl-1H-[1,2,4]triazol-3-yl)-phenol] the value was 11 µM.

These data come from patent publication US20050075375A1 (priority 2003, published 2005).
